For orientation: IC50 means the concentration at which inhibition is half-maximal. The term inhibition in vivo denotes the drop in the measured response relative to a control, in per cent. In general, CC50 refers to the concentration giving 50% cytotoxicity. For orientation: GI50 means the concentration at which growth is held to half of that of the control.

A short description of data set [1]: Growth inhibition of HUVEC at 5 uM relative to control. It is filed as cell-based. As to conditions: human, HUVEC cells; read-out: GI.
In data set [2] the test system is Plasmodium falciparum. Nature of the data set: Antiplasmodial activity against blood form of chloroquine-resistant/mefloquine-sensitive Plasmodium falciparum W2 by [3H]-hypoxanthine incorporation method. It counts as functional, organism-based.
Data set [3] deals with Plasmodium falciparum. Nature of the data set: Antiplasmodial activity against blood form of chloroquine-resistant/mefloquine-sensitive Plasmodium falciparum W2 by histidine rich protein assay. It counts as functional, organism-based.
Data set [4] in a line: Cytotoxicity against […] B16 cells. It counts as functional, cell-based.
Data set [5] has as its target Sodium-dependent serotonin transporter (Homo sapiens, UniProt P31645). Nature of the data set: Displacement of [3H]Imipramine from human 5-HT transporter expressed in HEK-293 cell membranes after 30 mins. For orientation: Displacement assays read how much labelled ligand stays bound in the presence of the test substance.
In another data set the test system is Mus musculus. Nature of the data set: Antinarcotic activity in morphine-dependent C57BL/6 mouse assessed as inhibition of naloxone-induced jumping behavior in mouse at 5 mg/kg , ip after 30 mins relative to control. It counts as functional. As to conditions: C57BL/6, ip, 0.5 h.
A further data set deals with Candida albicans. Nature of the data set: Antifungal activity against Candida albicans ATCC 10231 after 24 hrs by CLSI broth microdilution method. It counts as functional, organism-based. The conditions noted are these: ATCC 10231, 24 h.
The subject of the next data set is Pichia kudriavzevii. Nature of the data set: Antifungal activity against Candida krusei ATCC 6258 after 24 hrs by CLSI broth microdilution method. It is filed as functional, organism-based. The conditions noted are these: ATCC 6258, 24 h. For orientation: Dilution methods test growth across graded concentrations, often in twofold steps.
In the next data set the test system is Nakaseomyces glabratus. Nature of the data set: Antifungal activity against Candida glabrata ATCC 90030 after 24 hrs by CLSI broth microdilution method. It is filed as functional, organism-based. As to conditions: ATCC 90030, 24 h.
The next data set concerns Candida parapsilosis. Nature of the data set: Antifungal activity against Candida parapsilosis ATCC 22019 after 24 hrs by CLSI broth microdilution method. It is filed as functional, organism-based. As to conditions: Lodderomyces parapsilosis, ATCC 22019, 24 h.
In the next data set the test system is Staphylococcus aureus. Nature of the data set: Antibacterial activity against Staphylococcus aureus ATCC 6538 after 24 hrs by CLSI broth microdilution method. It is filed as functional, organism-based. The conditions noted are these: ATCC 6538, 24 h.
The nature of data set [6]: Cytotoxicity against BHK21 cells assessed as reduction in cell viability after 48 hrs by MTT assay. It is filed as cell-based, Mesocricetus auratus, BHK-21. The conditions noted are these: hamster.
In data set [7] the test system is Platelet. Nature of the data set: Antiplatelet activity in rabbit platelet rich plasma assessed as inhibition of collagen-induced platelet aggregation at 300 uM preincubated for 3 mins followed by collagen addition measured after 10 mins relative to control. It counts as functional. The conditions noted are these: Oryctolagus cuniculus.
Data set [8] relates to Platelet. Nature of the data set: Antiplatelet activity in rabbit platelet rich plasma assessed as inhibition of arachidonic acid-induced platelet aggregation at 300 uM preincubated for 3 mins followed by arachidonic acid addition measured after 10 mins relative to control. It counts as functional. The conditions noted are these: Oryctolagus cuniculus.
Data set [9] has as its system Platelet. Nature of the data set: Antiplatelet activity in rabbit platelet rich plasma assessed as inhibition of PAF-induced platelet aggregation at 300 uM preincubated for 3 mins followed by PAF addition measured after 10 mins relative to control. It is filed as functional. As to conditions: Oryctolagus cuniculus.
Data set [10] deals with Platelet. Nature of the data set: Antiplatelet activity in rabbit platelet rich plasma assessed as inhibition of thrombin-induced platelet aggregation at 300 uM preincubated for 3 mins followed by thrombin addition measured after 10 mins relative to control. As to conditions: Oryctolagus cuniculus. It counts as functional.
Data set [11] in a line: Selectivity index, ratio of CC50 for BHK21 cells to IC50 for Candida albicans ATCC 10231. It counts as toxicity. As to conditions: hamster, read-out: Ratio CC50/IC50.
The nature of data set [12]: Selectivity index, ratio of CC50 for BHK21 cells to IC50 for Candida krusei ATCC 6258. It is filed as toxicity. The conditions noted are these: hamster, read-out: Ratio CC50/IC50.
Data set [13] can be described thus: Selectivity index, ratio of CC50 for BHK21 cells to IC50 for Candida glabrata ATCC 90030. The conditions noted are these: hamster, read-out: Ratio CC50/IC50. It is filed as toxicity.
Data set [14] can be described thus: Selectivity index, ratio of CC50 for BHK21 cells to IC50 for Candida parapsilosis ATCC 22019. It is filed as toxicity. As to conditions: hamster, read-out: Ratio CC50/IC50.
Data set [15] can be described thus: Selectivity index, ratio of CC50 for BHK21 cells to IC50 for Staphylococcus aureus ATCC 6538. It counts as toxicity. The conditions noted are these: hamster, read-out: Ratio CC50/IC50.
Data set [16] deals with Platelet. Nature of the data set: Antiplatelet activity in rabbit platelet rich plasma assessed as inhibition of collagen-induced platelet aggregation at 150 uM preincubated for 3 mins followed by collagen addition measured after 10 mins relative to control. It counts as functional. As to conditions: Oryctolagus cuniculus.
Data set [17] has as its system Platelet. Nature of the data set: Antiplatelet activity in rabbit platelet rich plasma assessed as inhibition of arachidonic acid-induced platelet aggregation at 150 uM preincubated for 3 mins followed by arachidonic acid addition measured after 10 mins relative to control. As to conditions: Oryctolagus cuniculus. It is filed as functional.
In data set [18] the test system is Platelet. Nature of the data set: Antiplatelet activity in rabbit platelet rich plasma assessed as inhibition of PAF-induced platelet aggregation at 150 uM preincubated for 3 mins followed by PAF addition measured after 10 mins relative to control. As to conditions: Oryctolagus cuniculus. It counts as functional.
In the next data set the test system is EL4. Nature of the data set: Antitumor activity against mouse EL4 cells by MTT assay. In general terms: Tetrazolium assays rely on reduction of a dye to a coloured formazan, in cell work by metabolically active cells.
Another data set relates to CPAE. Nature of the data set: Cytotoxic activity against cow CPAE cells by MTT assay. As to conditions: Bos taurus.
The test system of another data set is HepG2 2.2.15. Nature of the data set: Cytotoxicity against human HepG2(2.2.15) cells after 24 hrs by MTT assay. It counts as functional. As to conditions: HepG2 2.2.15, 24 h.
For data set [19], the system named is Hepatitis B virus. Nature of the data set: Antiviral activity against Hepatitis B virus infected in human HepG2.2.15 cells assessed as reduction in HBsAg secretion by ELISA. It is filed as functional, organism-based.
The test system of data set [20] is Hepatitis B virus. Nature of the data set: Antiviral activity against Hepatitis B virus infected in human HepG2.2.15 cells assessed as reduction in HBeAg secretion by ELISA. It is filed as functional, organism-based.
Data set [21] deals with 5-hydroxytryptamine receptor 1A (Homo sapiens, UniProt P08908). Nature of the data set: Displacement of [3H]8-OH-DPAT from 5-HT1A receptor (unknown origin) expressed in CHO-K1 cell membranes after 60 mins by microbeta counting method.
Chain of 5-hydroxytryptamine receptor 1A (P08908 whole entry): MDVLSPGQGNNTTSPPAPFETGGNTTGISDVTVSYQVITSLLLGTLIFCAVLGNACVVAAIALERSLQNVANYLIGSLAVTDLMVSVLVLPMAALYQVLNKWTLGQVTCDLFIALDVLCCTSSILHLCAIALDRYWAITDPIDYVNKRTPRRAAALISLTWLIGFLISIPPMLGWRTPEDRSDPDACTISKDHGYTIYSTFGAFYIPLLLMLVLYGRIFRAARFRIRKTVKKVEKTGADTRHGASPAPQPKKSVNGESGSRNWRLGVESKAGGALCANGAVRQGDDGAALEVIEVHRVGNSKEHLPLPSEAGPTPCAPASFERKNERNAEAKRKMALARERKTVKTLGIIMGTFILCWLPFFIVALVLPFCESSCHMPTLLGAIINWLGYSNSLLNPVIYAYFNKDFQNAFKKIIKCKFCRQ
In another data set the test system is Candida tropicalis. Nature of the data set: Antifungal activity against Candida tropicalis ATCC 750 after 24 hrs by CLSI broth microdilution method. It is filed as functional, organism-based. The conditions noted are these: ATCC 750, 24 h.
A short description of data set [22]: Selectivity index, ratio of CC50 for BHK21 cells to IC50 for Candida tropicalis ATCC 750. It is filed as toxicity. The conditions noted are these: hamster, read-out: Ratio CC50/IC50.
A short description of data set [23]: Growth inhibition of HUVEC. It counts as cell-based. As to conditions: human, HUVEC cells.
For data set [24], the target named is T1, Bifunctional epoxide hydrolase 2 (Homo sapiens, UniProt P34913).
T1 sequence (P34913 whole entry): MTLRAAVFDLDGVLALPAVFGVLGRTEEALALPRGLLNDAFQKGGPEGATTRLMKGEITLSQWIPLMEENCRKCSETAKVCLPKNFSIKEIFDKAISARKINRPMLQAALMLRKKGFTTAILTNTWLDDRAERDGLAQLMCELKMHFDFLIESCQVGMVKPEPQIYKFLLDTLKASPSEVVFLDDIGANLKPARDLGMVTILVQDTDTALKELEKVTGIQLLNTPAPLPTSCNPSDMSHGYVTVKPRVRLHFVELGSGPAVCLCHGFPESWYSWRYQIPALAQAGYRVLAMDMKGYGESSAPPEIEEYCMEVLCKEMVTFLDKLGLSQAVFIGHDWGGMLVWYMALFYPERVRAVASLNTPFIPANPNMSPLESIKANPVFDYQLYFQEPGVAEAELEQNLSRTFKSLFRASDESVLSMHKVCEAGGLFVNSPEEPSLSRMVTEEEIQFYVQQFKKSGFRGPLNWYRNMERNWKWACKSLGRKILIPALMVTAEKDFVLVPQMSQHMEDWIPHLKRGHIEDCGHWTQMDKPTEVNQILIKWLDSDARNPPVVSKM
Nature of the data set: Competitive inhibition of soluble epoxide hydrolase (unknown origin).

Data set [25] deals with T2, Bifunctional epoxide hydrolase 2 (Homo sapiens) (UniProt P34913).
T2 sequence (whole entry): T1 sequence (P34913 whole entry)
Nature of the data set: Competitive inhibition of soluble epoxide hydrolase (unknown origin) at 100 uM relative to control.

Converted amounts (≈) assume the structure as drawn.

Chain of Sodium-dependent serotonin transporter (P31645 whole entry): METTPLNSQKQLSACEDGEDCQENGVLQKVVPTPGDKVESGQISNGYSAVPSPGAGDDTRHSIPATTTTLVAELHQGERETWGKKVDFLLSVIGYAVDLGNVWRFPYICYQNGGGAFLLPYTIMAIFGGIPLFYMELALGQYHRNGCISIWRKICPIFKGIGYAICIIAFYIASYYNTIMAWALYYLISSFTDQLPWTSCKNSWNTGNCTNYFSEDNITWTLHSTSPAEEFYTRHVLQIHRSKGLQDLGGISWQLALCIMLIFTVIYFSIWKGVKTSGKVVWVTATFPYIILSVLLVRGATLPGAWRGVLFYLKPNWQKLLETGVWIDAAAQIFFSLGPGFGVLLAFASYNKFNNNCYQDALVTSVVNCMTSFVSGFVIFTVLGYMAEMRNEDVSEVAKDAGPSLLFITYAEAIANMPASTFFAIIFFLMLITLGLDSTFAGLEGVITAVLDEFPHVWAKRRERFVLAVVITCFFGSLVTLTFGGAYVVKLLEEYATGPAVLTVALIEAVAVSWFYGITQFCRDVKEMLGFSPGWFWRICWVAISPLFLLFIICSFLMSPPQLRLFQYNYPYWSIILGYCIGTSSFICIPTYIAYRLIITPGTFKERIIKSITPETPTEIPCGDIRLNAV

In the case of `COc1cc(/C=C/C(=O)Nc2ccc(NC(=O)[C@@H](O)[C@H](N)Cc3ccccc3)cc2)cc(OC)c1OC`, the inhibition at 5 µM in data set [1] amounted to 93%.
Turning to `COc1cc(/C=C/C(=O)OCC(=O)c2ccc(Cl)cc2)cc(OC)c1OC`, the IC50 in the data set with Plasmodium falciparum [2] and in the data set on Plasmodium falciparum [3] was 128 µM each time.
Turning to `COc1cc2oc(=O)cc(COC(=O)/C=C/c3cc(OC)c(OC)c(OC)c3)c2cc1OC`, the IC50 in data set [4] came to 6.74 µg/mL (≈ 14.8 µM).
As for `CCCCCCCCNC(=O)/C=C/c1cc(OC)c(OC)c(OC)c1`, in data set [5], the IC50 is greater than 10 µM. Besides, the inhibition in vivo at 5 mg/kg in the data set with Mus musculus is 88%.
On to `COc1cc(/C=C/C(=O)N2CCC=CC2=O)cc(OC)c1OC` [PIPLARTINE], for which the IC50 in the data set on Candida albicans stood at 94.6 µM; in the data set on Pichia kudriavzevii, 189 µM; in the data set on Nakaseomyces glabratus it was 189 µM; in the data set with Candida parapsilosis, 94.6 µM; with Staphylococcus aureus, 315 µM. Further, in data set [6], the CC50 at 48 h came to 40.1 µM. Moreover, the inhibition at 300 µM turned out to be 100% in the data set with Platelet [7], 100% in the data set with Platelet [8], 100% in the data set on Platelet [9] and 23.5% in the data set on Platelet [10]. The selectivity ratio in data set [11] was found to be 0.42; in data set [12], 0.21; in data set [13], 0.21; in data set [14], 0.42; in data set [15] it was 0.12. The inhibition at 150 µM in the data set with Platelet [16] is 100%; with Platelet [17], 76.4%; with Platelet [18], 100%.
Regarding `COc1cc(/C=C/C(=O)O)cc(OC)c1OC` [SINAPIC ACID METHYL ETHER], the IC50 in [5] is greater than 10 µM.
Turning to `COc1cc(/C=C/C(=O)O[C@@H]2CC[C@]3(CO3)[C@@H]([C@@]3(C)O[C@@H]3CC=C(C)C)[C@@H]2OC)cc(OC)c1OC`, the IC50 turned out to be 0.15 µg/mL (≈ 0.298 µM) in the data set with EL4 and 0.03 µg/mL (≈ 0.0597 µM) in the data set on CPAE.
In the case of `COc1cc(/C=C/C(=O)ON=C2C3CC4CC(C3)CC2C4)cc(OC)c1OC`, in the data set on HepG2 2.2.15, the midpoint of cytotoxicity, the CC50, lay at 507 µM. The IC50 in the data set with Hepatitis B virus [19] is 107 µM; in the data set with Hepatitis B virus [20], 74.8 µM.
`COc1cc(/C=C/C(=O)Oc2ccccc2)cc(OC)c1OC` came in with an IC50 in [21] of 9.4 µM.
For `COc1cc(/C=C/C(=O)N2CCOCC2)cc(OC)c1OC`, the IC50 in the data set on Candida tropicalis is 97.7 µM; with Pichia kudriavzevii, 48.8 µM. In addition, the CC50 at 48 h in data set [6] turned out to be 186 µM. Also, the selectivity ratio in [22] amounted to 1.89; in data set [12] it was 3.79.
Compound `COc1cc(/C=C/C(=O)Nc2ccc(NC(=O)[C@@H](O)[C@H](N)CC3CCCCC3)cc2)cc(OC)c1OC` returned a GI50 in [23] of 0.67 µM. For the same compound, in data set [1], the inhibition at 5 µM was greater than 98%.
Regarding `COc1ccc(C(=O)OC[C@H]2O[C@H](O[C@]3(CO)O[C@H](CO)[C@@H](O)[C@@H]3OC(=O)/C=C/c3cc(OC)c(OC)c(OC)c3)[C@H](O)[C@@H](O)[C@@H]2O)cc1`, the IC50 in data set [24] amounted to 6.4 µM. Further, the inhibition in [25] is greater than 100%.

The values above are taken from ChEMBL document CHEMBL4346712, “Research progress in the biological activities of 3,4,5-trimethoxycinnamic acid (TMCA) derivatives” (Eur J Med Chem, 2019).
